The record followed here is patent US9834773B2, “Methods and means for metabolic engineering and improved product formation by micro-organisms” (Universiteit Leiden, priority 2006, dated 2017).

“Also recorded” adds a separate entry of the source.

In experiment [1] the test system is S. coelicolor M145 and BAP29 mycelia. As to the kind of experiment: Sugar uptake assay with N-[14C]acetyl-D-glucosamine into mycelia. It is filed as cell-based, Streptomyces coelicolor. The conditions noted are these: parent M145, cultures grown in glycerol and inducer (GlcNAc); 20 μM N-[14C]acetyl-D-glucosamine. The text has this:
FIG. 8. DasR represses genes the N-acetylglucosamine regulon (A) Effect of deletion of dasR on the uptake of GlcNAc. Left, uptake in glycerol-grown cultures; right, uptake in cultures grown in glycerol and inducer (GlcNAc); note that expression was constitutive in BAP29. (B) Western blot analysis of HPr (top) and IIA^Crr (bottom), showing that inducibility of these PTS proteins is controlled by DasR. (C) Transcriptional analysis of crr (for IIA^Crr), nagE2 (for IIC^GlcNAc), malX2 (for IIB^GlcNAc), nagB and chiF by semi-quantitative RT-PCR. Samples were collected before and 15, 30 and 60 min after the addition of GlcNAc to exponentially growing minimal medium glycerol cultures. 16S rRNA was used as control.
Uptake assays with 20 μM N-[^14C]acetyl-D-glucosamine (6.2 mCi mmol^−1) into mycelia were performed as described (Nothaft et al., 2003).
Since many of the predicted DasR targets were involved in the fate of carbon sources (Table 2), we analyzed the effects of the dasR mutation on sugar import. […] This correlated to constitutive protein levels of the universal PTS phosphotransferases HPr and IIA^Crr (FIG. 8B), and was supported by RT-PCR of the respective genes (malX2, nagE2, crr-ptsI and ptsH; FIG. 8C) that encode the PTS permease complex (IIB^GlcNAc, IIC^GlcNAc, IIA^Crr, EI, HPr).

Experiment [2] deals with several streptomycetes (Bacillus subtilis as the indicator strain). Put plainly: Global antibiotic activity assay: streptomycetes on MM mannitol with or without GlcNAc, Bacillus subtilis overlay. It is filed as cell-based, Streptomyces species. The conditions noted are these: MM mannitol 0.5% with vs without GlcNAc 1%; for growth inhibition zones indicative of antibiotic production: B. subtilis indicator. As to the method:
FIG. 23. Conservation of the GlcNAc-dependent antibiotic-inducing pathway amongst streptomycetes. Streptomycetes were grown on MM agar plates with 0.5% mannitol alone (left panel), or with added 1% GlcNAc (right panel), and an overlay was applied containing B. subtilis, allowing visualization of growth inhibition caused by antibiotic production. The tested streptomycetes were Streptomyces lividans 1326 (1326), Streptomyces hygroscopicus (hygro), Streptomyces collinus (colli), Streptomyces roseosporus (roseo), Streptomyces cinnamonensis (cinna), Streptomyces venezuelae (venez), Streptomyces clavuligerus (clavu), Streptomyces rimosus (rimos), Streptomyces griseus (grise), Streptomyces acrimycini (acrim), Streptomyces limosus (limos), and Streptomyces avermitilis (averm). See Materials and Methods section for exact nomenclature. The GlcNAc-triggering effect on antibiotic activity was most obvious for S. hygroscopicus, S. collinus, S. venezuelae, S. clavuligerus, S. rimosus, and S. griseus.
Samples (1 μl) of diluted spore suspensions were spotted on minimal medium plates containing 0.5% mannitol with or without 1% GlcNAc and incubated three days at 28° C. For the bioassay, we inoculated 10 ml of molten soft nutrient agar (SNA) with 500 μl of a Bacillus subtilis overnight culture (0D600˜1), and poured the mixture into square 12-cm-side Petri dishes. Plates were kept 2 h at 4° C. to solidify SNA and to allow diffusion of antibiotics produced, then incubated overnight at 30° C.
Is the GlcNAc-mediated control of antibiotic production a more widespread phenomenon in streptomycetes? To assess this, we evaluated the effect of GlcNAc on total antimicrobial activity (bactericidal and bacteristatic) of several streptomycetes, using Bacillus subtilis as the indicator strain. The tested strains were spotted on minimal medium containing mannitol (0.5%) with or without GlcNAc (1%). Excitingly, growth inhibition zones indicative of antibiotic production were much larger for Streptomyces clavuligerus (a producer of cephamycin), Streptomyces collinus (produces kirromycin), Streptomyces griseus (streptomycin producer), Streptomyces hygroscopicus (produces hygromycin), Streptomyces rimosus (produces oxytetracycline), and Streptomyces venezuelae (chloramphenicol, methymycin) (FIG. 23).

Experiment [3] has as its system S. coelicolor M145 and nagE1, nagE2 mutants. Put plainly: Development on R2YE agar plates with or without N-acetylglucosamine. Type of experiment: cell-based, Streptomyces coelicolor. The conditions noted are these: N-acetylglucosamine 1% w/v. As to the method:
FIG. 18. N-acetylglucosamine is transported by NagE2 (SCO2907). Mutants deleted for the transport genes nagE1/(SCO2906), nagE2 (SCO2907), or both, were plated on R2YE agar plates with or without N-acetylglucosamine (1% w/v). Other strains on the agar plates are: S.coelicolor M145 (parent of all mutants), the dasR mutant BAP29 and the pts mutants ptsH (BAP1), crr (BAP2), and ptsI (BAP3). For phenotypes of the pts mutants see also FIG. 3A). […] This proves that indeed nagE2 is the transporter of N-caetylglucosamine and is essential for import of the inducer molecule for the DasR control system.
Two possible transporters for N-acetylglucosamine were identified on the S. coelicolor genome, namely the adjacent genes nagE1 (SCO2906) and nagE2 (SCO2907). Mutants were created for both genes by replacing the entire gene by the apramycin resistance cassette aacC4. A double mutant was also produced (BAP6). The method used to do this was by using pWHM3, as described previously (Nothaft et al., 2003). Mutants deleted for the transport genes nagE1 (BAP4), nagE2 (BAP5), or both (BAP6), were plated on R2YE agar plates with or without N-acetylglucosamine (1% w/v). Other strains on the agar plates are: S.coelicolor M145 (parent of all mutants), the dasR mutant BAP29 and the pts mutants ptsH (BAP1), crr (BAP2), and ptsI (BAP3). For phenotypes of the pts mutants see also FIG. 3A). […] This proves that indeed nagE2 is the transporter of N-acetylglucosamine and is essential for import of the inducer molecule for the DasR control system.

As to `CC(=O)N[C@H]1C(O)O[C@H](CO)[C@@H](O)[C@@H]1O` (some centres unmarked) [N-acetylglucosamine], in experiment [1], the “PTS-mediated uptake of GlcNAc” value is “induced”. Also, the “antibiotic activity against B. subtilis” value is “did not seem to affect” in experiment [2] (Streptomyces acrimycini); “did not seem to affect” in experiment [2] (Streptomyces avermitilis); “did not seem to affect” in experiment [2] (Streptomyces cinnamonensis); “did not seem to affect” in experiment [2] (Streptomyces limosus); “did not seem to affect” in experiment [2] (Streptomyces lividans); “repressing effect” in experiment [2] (Streptomyces roseosporus). Besides, the “growth inhibition zones indicative of antibiotic production” value in experiment [2] (Streptomyces clavuligerus), in experiment [2] (Streptomyces collinus), in experiment [2] (Streptomyces griseus), in experiment [2] (Streptomyces hygroscopicus), in experiment [2] (Streptomyces rimosus) and in experiment [2] (Streptomyces venezuelae) was “most obvious; also recorded: much larger” each time. In addition, the effect on development entry in experiment [3] (nagE1/nagE2 double mutant (BAP6), R2YE agar) is given as “no effect on development”; in experiment [3] (nagE1 mutant (BAP4), R2YE agar) it was “arrested in the vegetative state”; in experiment [3] (nagE2 mutant (BAP5), R2YE agar), “no effect on development”; in experiment [3] (parental strain S. coelicolor M145, R2YE agar), “arrested in the vegetative state”.
